Laboratory results published in patent US7312188B2, “Peptide derivatives having β-secretase inhibitory activity” (priority 2003, dated 2007).
Numbered stars: 1 amine (or outer) side, 2 acyl side, 3 side chain; on linkers, the order of the positions; unused ones are H or OH. Square brackets hold non-standard residues; d marks the D form. Peptide text beside a SMILES is read from it. * marks the point of attachment. ξ: configuration not given here. β3hPhe(2R-OH) = O=C([C@H](O)[C@H](Cc1ccccc1)N[*:1])[*:2]; X2 = O=C([C@H](O)[C@H](CSc1ccccc1)N[*:1])[*:2]; Tetrazole5carbonyl = O=C(c1nn[nH]n1)*; Thz(5,5-Me2) = CC1(C)SCN[C@@H]1C(=O)O; Oxalyl = O=C(C(=O)[*:2])[*:1]; X1 = O=C(c1ccc(O)c(O)c1)*; 3Abz = Nc1cccc(C(=O)O)c1; ξE = NC(CCC(=O)O)C(=O)O; Dap = NC[C@H](N)C(=O)O; ξPip = O=C(O)C1CCCCN1

Molecular target: T1, recombinant human BACE-1 (rhBACE-1) (Homo sapiens, UniProt P56817)
T1 construct: expressed as only an extracellular region (amino acid 1-460 residues) of recombinant human β-secretase; His tag (C); purchased R&D systems (Minneapolis, Minn.); host or cells: murine myeloma cell line NS0
Experiment: BACE1 inhibitory activity, reverse phase HPLC quantitation of N-terminal fragment of fluorogenic substrate
Format: biochemical
Details: 1 μL of inhibitor solution in DMSO (100 μM) in 50 μL reaction; MES buffer pH 5.0; 37° C., 60 minutes
Procedure, shortened: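 rhBACE-1 ectodomain (residues 1-460, C-terminal His tag, NS0-expressed) in MES buffer pH 5.0 with inhibitor (diluted in DMSO, 100 μM solution) and MCA/DNP fluorogenic peptide (250 μM stock), 60 min at 37 °C, TCA stop. N-terminal fragment quantified by reverse-phase HPLC fluorescence (Ex 328/Em 393 nm); inhibition % derived.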

T1 sequence (P56817 22-460 limits assumed): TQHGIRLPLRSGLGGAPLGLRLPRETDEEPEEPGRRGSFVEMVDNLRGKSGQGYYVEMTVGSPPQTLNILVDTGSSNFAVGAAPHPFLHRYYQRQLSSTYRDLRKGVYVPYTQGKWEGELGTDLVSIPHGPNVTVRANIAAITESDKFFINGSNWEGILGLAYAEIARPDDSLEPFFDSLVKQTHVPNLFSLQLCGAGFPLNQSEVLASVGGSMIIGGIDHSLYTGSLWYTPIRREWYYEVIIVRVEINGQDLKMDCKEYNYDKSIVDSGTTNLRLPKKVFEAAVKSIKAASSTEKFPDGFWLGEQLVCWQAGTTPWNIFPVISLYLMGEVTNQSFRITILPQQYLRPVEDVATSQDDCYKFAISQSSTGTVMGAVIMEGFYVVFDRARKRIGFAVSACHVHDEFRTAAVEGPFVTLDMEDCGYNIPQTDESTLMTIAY

In the case of `CC(C)[C@H](NC(=O)[C@@H](N)CNC(=O)c1nnn[nH]1)C(=O)N[C@@H](CC1CCCCC1)C(=O)N[C@@H](Cc1ccccc1)[C@@H](O)C(=O)Nc1cccc(C(=O)O)c1` [Example 137], the inhibition at 2 µM is reported as 99.5%.
`CCSC[C@H](NC(=O)[C@@H](NC(=O)[C@@H](N)CCC(=O)O)C(C)C)C(=O)N[C@@H](Cc1ccccc1)[C@@H](O)C(=O)Nc1cccc(C(=O)O)c1` [Example 132] gave an inhibition at 2 µM of 68.1%.
Work on `CC(C)C[C@H](NC(=O)[C@@H](NC(=O)[C@@H](N)CNC(=O)c1cc(O)cc(O)c1)C(C)C)C(=O)N[C@@H](Cc1ccccc1)[C@@H](O)C(=O)Nc1cccc(C(=O)O)c1` [Example 148] yielded an inhibition at 100 µM (stock) of 93.8%.
`CC(C)C[C@H](NC(=O)[C@@H](NC(=O)[C@@H](N)CCC(=O)O)C(C)C)C(=O)N[C@@H](Cc1ccccc1)[C@@H](O)C(=O)Nc1cc(Cl)c(O)c(Cl)c1` [Example 149] was tested, and the inhibition at 2 µM was 80.1%.
`CCC[C@H](NC(=O)[C@@H](NC(=O)[C@@H](N)CCC(=O)O)C(C)C)C(=O)N[C@@H](Cc1ccccc1)[C@@H](O)C(=O)Nc1cccc(C(=O)O)c1` [Example 161] showed an inhibition at 2 µM of 64.7%.
Compound `CC(C)C[C@H](NC(=O)[C@@H](NC(=O)[C@@H](N)CNC(=O)C(=O)O)C(C)C)C(=O)N[C@@H](Cc1ccccc1)[C@@H](O)C(=O)N[C@@H](CC(=O)O)C(=O)Nc1cccc(C(=O)O)c1` [Example 70] (H-[Dap](Oxalyl)VL[β3hPhe(2R-OH)]D[3Abz]-OH) has an inhibition at 2 µM of 98.3%.
`CC(C)C[C@H](NC(=O)[C@@H](NC(=O)[C@@H](N)CNC(=O)c1nnn[nH]1)C(C)C)C(=O)N[C@@H](Cc1ccccc1)[C@@H](O)C(=O)Nc1cccc(C(N)=O)c1` [Example 124] gave an inhibition at 2 µM of 97.3%.
For `CC(C)C[C@H](NC(=O)[C@@H](NC(=O)[C@@H](N)CNC(=O)c1ccc(O)c(O)c1)C(C)C)C(=O)N[C@@H](Cc1ccccc1)[C@@H](O)C(=O)N[C@@H](CC(=O)O)C(=O)N[C@@H](C)C(=O)N[C@@H](CCC(=O)O)C(=O)O` [Example 133] (H-[Dap](X1)VL[β3hPhe(2R-OH)]DAE-OH), the inhibition at 100 µM (stock) was 71.5%.
Work on `CC(C)C[C@H](NC(=O)[C@@H](NC(=O)[C@@H](N)CCC(=O)O)C(C)C)C(=O)N[C@@H](CSc1ccccc1)[C@@H](O)C(=O)N[C@@H](CC(=O)O)C(=O)O` [Example 90] (H-EVL[X2]D-OH) yielded an inhibition at 2 µM of 69%.
With `CC(C)C[C@H](NC(=O)[C@@H](NC(=O)[C@@H](N)CCC(=O)O)C(C)C)C(=O)N[C@@H](Cc1ccccc1)[C@@H](O)C(=O)Nc1cc(Cl)c(OCC(N)=O)c(Cl)c1` [Example 182] the inhibition at 100 µM (stock) was 75.7%.
For “H-Glu-Val-Leu-Pns-Asp-Ala-Glu-Gly-OH (H-EVL[β3hPhe(2R-OH)]DAEG-OH; SMILES CC(C)C[C@H](NC(=O)[C@@H](NC(=O)[C@@H](N)CCC(=O)O)C(C)C)C(=O)N[C@@H](Cc1ccccc1)[C@@H](O)C(=O)N[C@@H](CC(=O)O)C(=O)N[C@@H](C)C(=O)N[C@@H](CCC(=O)O)C(=O)NCC(=O)O) [Example 45]”, the “Activity (BACE1 inhibition %)” value was 66.79%.
`CC(C)C[C@H](NC(=O)[C@@H](NC(=O)[C@@H](N)CCC(=O)O)C(C)C)C(=O)N[C@@H](Cc1ccccc1)[C@@H](O)C(=O)N[C@@H](CC(=O)O)C(=O)N1CCCCC1C(=O)O` (stereo partly drawn) [Example 88] (H-EVL[β3hPhe(2R-OH)]D[ξPip]-OH) showed an inhibition at 2 µM of 70.4%.
`CC(C)[C@H](NC(=O)[C@@H](NC(=O)[C@@H](N)CCC(=O)O)C(C)C)C(=O)N[C@@H](Cc1ccccc1)[C@@H](O)C(=O)N[C@@H](CC(=O)O)C(=O)N[C@@H](C)C(=O)N[C@@H](CCC(=O)O)C(=O)N[C@@H](Cc1ccccc1)C(=O)O` [Example 123] (H-EVV[β3hPhe(2R-OH)]DAEF-OH) gave an inhibition at 2 µM of 61.4%.
In the case of “H-Glu-Val-Leu-Pns-Asp-Ala-Leu-Phe-OH (H-EVL[β3hPhe(2R-OH)]DALF-OH; SMILES CC(C)C[C@H](NC(=O)[C@H](C)NC(=O)[C@H](CC(=O)O)NC(=O)[C@H](O)[C@H](Cc1ccccc1)NC(=O)[C@H](CC(C)C)NC(=O)[C@@H](NC(=O)[C@@H](N)CCC(=O)O)C(C)C)C(=O)N[C@@H](Cc1ccccc1)C(=O)O) [Example 30]”, the “Activity (BACE1 inhibition %)” value is reported as 56.57%.
In the case of `Cc1c(NC(=O)[C@H](O)[C@H](Cc2ccccc2)NC(=O)[C@H](CC(C)C)NC(=O)[C@@H](NC(=O)[C@@H](N)CCC(=O)O)C(C)C)cccc1C(=O)O` [Example 128], the inhibition at 2 µM is reported as 53.6%.
`CC(C)C[C@H](NC(=O)[C@@H](NC(=O)[C@@H](N)CCC(=O)O)C(C)C)C(=O)N[C@@H](Cc1ccccc1)[C@@H](O)C(=O)Nc1cc(Br)c(OCC(=O)O)c(Br)c1` [Example 184] was tested, and the inhibition at 100 µM (stock) was 88.1%.
`CC(C)[C@H](NC(=O)[C@@H](N)CNC(=O)C(=O)O)C(=O)N[C@@H](CC1CCCCC1)C(=O)N[C@@H](Cc1ccccc1)[C@@H](O)C(=O)Nc1cc(C(=O)O)cc(C(=O)O)c1` [Example 134] was tested, and the inhibition at 2 µM was 99.6%.
Compound `CC(C)C[C@H](NC(=O)[C@@H](NC(=O)[C@@H](N)CNC(=O)c1[nH]c(=O)[nH]c(=O)c1F)C(C)C)C(=O)N[C@@H](Cc1ccccc1)[C@@H](O)C(=O)Nc1cccc(-c2nnn[nH]2)c1` [Example 187] has an inhibition at 100 µM (stock) of 100%.
`CC(C)C[C@H](NC(=O)[C@@H](NC(=O)[C@@H](N)CNC(=O)c1cc(O)ccc1O)C(C)C)C(=O)N[C@@H](Cc1ccccc1)[C@@H](O)C(=O)Nc1cccc(-c2nnn[nH]2)c1` [Example 190] was tested, and the inhibition at 100 µM (stock) was 99.3%.
`CC(C)C[C@H](NC(=O)[C@@H](NC(=O)[C@@H](N)CNC(=O)c1ccc(O)cc1)C(C)C)C(=O)N[C@@H](Cc1ccccc1)[C@@H](O)C(=O)Nc1cccc(C(=O)O)c1` [Example 154] showed an inhibition at 2 µM of 69.9%.
With `CC(C)[C@H](NC(=O)[C@@H](N)CCC(=O)O)C(=O)N[C@@H](CCc1ccccc1)C(=O)N[C@@H](Cc1ccccc1)[C@@H](O)C(=O)Nc1cccc(C(=O)O)c1` [Example 166] the inhibition at 2 µM was 84.9%.
For `CC(C)C[C@H](NC(=O)[C@@H](NC(=O)[C@@H](N)CCC(=O)O)C(C)C)C(=O)N[C@@H](Cc1ccccc1)[C@@H](O)C(=O)N[C@@H](CC(C)C)C(=O)N[C@@H](C)C(=O)N[C@@H](CCC(=O)O)C(=O)N[C@@H](Cc1ccccc1)C(=O)O` [Example 107] (H-EVL[β3hPhe(2R-OH)]LAEF-OH), the inhibition at 2 µM was 52.1%.
Work on `COC(=O)c1cccc(C(=O)NC[C@H](N)C(=O)N[C@H](C(=O)N[C@@H](CC(C)C)C(=O)N[C@@H](Cc2ccccc2)[C@@H](O)C(=O)Nc2cccc(C(=O)O)c2)C(C)C)c1` [Example 183] yielded an inhibition at 100 µM (stock) of 52.1%.
With `CC(C)C[C@H](NC(=O)[C@@H](NC(=O)[C@@H](N)CCC(=O)O)C(C)C)C(=O)N[C@@H](Cc1ccccc1)[C@@H](O)C(=O)N1CSC(C)(C)[C@H]1C(=O)N[C@@H](C)C(=O)NC(CCC(=O)O)C(=O)N[C@@H](Cc1ccccc1)C(=O)O` (stereo partly drawn) [Example 106] (H-EVL[β3hPhe(2R-OH)][Thz(5,5-Me2)]A[ξE]F-OH) the inhibition at 2 µM was 53%.
In the case of `CC(C)C[C@H](NC(=O)[C@@H](NC(=O)[C@@H](N)CNC(=O)c1cc(N)cc(C(=O)O)c1)C(C)C)C(=O)N[C@@H](CSc1ccccc1)[C@@H](O)C(=O)Nc1cccc(C(=O)O)c1` [Example 177], the inhibition at 2 µM is reported as 98.5%.
With `CC(C)C[C@H](NC(=O)[C@@H](NC(=O)[C@@H](N)CNC(=O)c1nnn[nH]1)C(C)C)C(=O)N[C@@H](Cc1ccccc1)[C@@H](O)C(=O)N[C@@H](CC(=O)O)C(=O)N[C@@H](C)C(=O)N[C@@H](CCC(=O)O)C(=O)O` [Example 73] (H-[Dap](Tetrazole5carbonyl)VL[β3hPhe(2R-OH)]DAE-OH) the inhibition at 2 µM was 93%.
`CC(C)C[C@H](NC(=O)[C@@H](NC(=O)[C@@H](N)CCC(=O)O)C(C)C)C(=O)N[C@@H](Cc1ccccc1)[C@@H](O)C(=O)Nc1cccc(O)c1` [Example 130] was tested, and the inhibition at 2 µM was 57.2%.
`CC(C)[C@H](NC(=O)[C@@H](N)CCC(=O)O)C(=O)N[C@@H](Cc1ccc(Cl)c(Cl)c1)C(=O)N[C@@H](Cc1ccccc1)[C@@H](O)C(=O)Nc1cccc(C(=O)O)c1` [Example 170] showed an inhibition at 2 µM of 60.5%.
